Reference: paper PMC7561186, “Rational design of balanced dual-targeting antibiotics with limited resistance” (PLoS Biology, 2020)
Values after ≈ are worked out from the molar mass of the structure shown. Values joined by “and” are separate entries in the source; they are usually repeats but may differ in a detail not shown here. Identical values can stand only once. Like-named read-outs stand apart in the source and are kept apart here.

Columns and labels:
[1] = test system: S. aureus clinical isolates; test: microbe, parasite or virus in culture; type: cell-based; details: Staphylococcus aureus, read-out: MIC
[2] = test system: S. aureus USA300 (MRSA) BAA1556, S. aureus (VRSA) ECL2963646, S. aureus Mu50 (VISA) ATCC 700699; test: S. aureus dermal infection model; type: in vivo, ICR mice; details: for Log CFU/Skin: 2% treatment, individual animals
Experimental: The testing strains, S. aureus USA300 (MRSA) BAA1556, S. aureus (VRSA) ECL2963646, and S. aureus Mu50 (VISA) ATCC 700699 were obtained from frozen stocks and thawed at room temperature. Next, an aliquot of 0.2 mL from each stock was transferred to 20 mL BHI broth and incubated at 37 °C with shaking (120 rpm) for 8 hours. Cells in 20 mL culture were pelleted by centrifugation, 3,500g for 15 minutes, and then resuspended in 10 mL cold PBS, then cells were diluted in PBS to obtain the inoculum sizes of 1×10^5 or 1× 10^6 CFU/mL, based on the testing strain’s virulence. In all cases, the actual colony counts were determined by plating dilutions in at least 3 replicates onto MHBII agar plates followed by 24 hours’ incubation and colony counting.
For dermal infections, groups of 5 female ICR mice weighing 24 ± 4 g, provided by BioLasco Taiwan (under a Charles River Laboratories Technology Licensee), were used. Animals were acclimated for 3 days prior to use and were confirmed to be in good health. Prior to infection, animals were anesthetized with etomidate-lipuro emulsion (20 mg /10 mL) at 20 mg/kg by IV injection, and then the fur on the back was removed by an electric shaver, and the epidermal layer was disrupted with an abrasive paper according to the protocol developed by Kugelberg and colleagues. Mice were inoculated topically on the wound area with testing strain suspension, 5 μL/mouse. The target inoculation densities were 1×10^5 or 1× 10^6 CFU/mL, based on the corresponding strain’s virulence. Following infection, animals were housed separately. […] Test articles were administered topically (20 μL/mouse) twice daily. One no-treatment group was euthanized at 1 hour after infection for initial bacterial counts, and the other treatment groups were dosed twice daily with the test compounds and sacrificed either at 25 hours or at 73 hours postinfection. Animals were euthanized with CO2 asphyxiation and the infected skin, a 2 cm^2 area, was excised. The skin samples of the wound infection (around 2 cm^2 areas) were then homogenized in 1 mL PBS (pH 7.4) with a polytron homogenizer. A 0.1 mL aliquot of each homogenate was used for serial 10-fold dilutions and plated onto MHBII agar plates for bacterial enumeration. Statistical significance (P <0.05) was assessed with 1-way ANOVA followed by Dunnett’s method. A significant (P <0.05) decrease in the bacterial counts of the treated animals compared with the vehicle control group was considered significant antimicrobial activity.

**Q.** For `Cc1[nH]c(C(=O)Nc2nc3ccc(C(=O)O)cc3s2)c(Cl)c1Cl` [ULD1], which MIC ([1]; MRSA, S. aureus IHMA 1622252, MRSA / VSSA) is on record?
**A.** The MIC was 1 µg/mL (≈ 2.7 µM).

**Q.** What about the MIC ([1]; MRSA, S. aureus IHMA 1622527, MRSA / VSSA) of the same compound?
**A.** The MIC was 0.25 µg/mL (≈ 0.675 µM).

**Q.** What about the MIC ([1]; MRSA, S. aureus IHMA 1666371, MRSA / VSSA) of the same compound?
**A.** Its MIC is 0.5 µg/mL (≈ 1.35 µM).

**Q.** What about the MIC ([1]; MRSA, S. aureus IHMA 1695391, MRSA / VSSA) of the same compound?
**A.** The MIC was 0.25 µg/mL (≈ 0.675 µM).

**Q.** What about the MIC ([1]; MRSA, S. aureus IHMA 1703428, MRSA / VSSA) of the same compound?
**A.** Its MIC is 1 µg/mL (≈ 2.7 µM).

**Q.** And the MIC ([1]; MRSA, S. aureus IHMA 1720350, MRSA / VSSA)?
**A.** Its MIC is 1 µg/mL (≈ 2.7 µM).

**Q.** And the MIC ([1]; MRSA, S. aureus IHMA 1732989, MRSA / VSSA)?
**A.** The MIC was 1 µg/mL (≈ 2.7 µM).

**Q.** And the MIC ([1]; MRSA, S. aureus IHMA 1742231, MRSA / VSSA)?
**A.** Its MIC is 0.5 µg/mL (≈ 1.35 µM).

**Q.** And the MIC ([1]; MRSA, S. aureus IHMA 1766357, MRSA / VSSA)?
**A.** The MIC was 0.25 µg/mL (≈ 0.675 µM).

**Q.** And the MIC ([1]; MSSA / NRS 12 / VISA, S. aureus IHMA 1308244, NRS12, MSSA / VISA)?
**A.** Its MIC is 1 µg/mL (≈ 2.7 µM).

**Q.** What about the MIC ([1]; MSSA / NRS 13 / VISA, S. aureus IHMA 1308245, NRS13, MSSA / VISA) of the same compound?
**A.** The MIC was 1 µg/mL (≈ 2.7 µM).

**Q.** What about the MIC ([1]; MSSA / NRS 14 / VISA, S. aureus IHMA 1308246, NRS14, MSSA / VISA) of the same compound?
**A.** Its MIC is 1 µg/mL (≈ 2.7 µM).

**Q.** What about the MIC ([1]; MSSA / NRS 17 / VISA, S. aureus IHMA 1308247, NRS17, MSSA / VISA) of the same compound?
**A.** Its MIC is 1 µg/mL (≈ 2.7 µM).

**Q.** And the MIC ([1]; MSSA / NRS 28 / VISA, S. aureus IHMA 1308249, NRS28, MSSA / VISA)?
**A.** Its MIC is 1 µg/mL (≈ 2.7 µM).

**Q.** And the MIC ([1]; MSSA / NRS 52, S. aureus IHMA 1308252, NRS52, MSSA / VSSA* (*Expected VAN intermediate, confirmed VAN susceptible twice), test date 2018-11-07)?
**A.** The MIC was 0.12 µg/mL (≈ 0.324 µM).

**Q.** And the MIC ([1]; MSSA / USA100 / VRSA, S. aureus IHMA 672236, VRS6, MSSA / VRSA, USA100)?
**A.** Its MIC is 0.25 µg/mL (≈ 0.675 µM).

**Q.** What about the MIC ([1]; MSSA, S. aureus IHMA 1563826, MSSA / VSSA) of the same compound?
**A.** Its MIC is 0.5 µg/mL (≈ 1.35 µM).

**Q.** What about the MIC ([1]; MSSA, S. aureus IHMA 1565492, MSSA / VSSA) of the same compound?
**A.** Its MIC is 0.25 µg/mL (≈ 0.675 µM).

**Q.** What about the MIC ([1]; MSSA, S. aureus IHMA 1569499, MSSA / VSSA) of the same compound?
**A.** The MIC was 1 µg/mL (≈ 2.7 µM).

**Q.** And the MIC ([1]; MSSA, S. aureus IHMA 1569754, MSSA / VSSA)?
**A.** Its MIC is 0.25 µg/mL (≈ 0.675 µM).

**Q.** What about the MIC ([1]; MSSA, S. aureus IHMA 1574202, MSSA / VSSA) of the same compound?
**A.** Its MIC is 0.5 µg/mL (≈ 1.35 µM).

**Q.** And the MIC ([1]; MSSA, S. aureus IHMA 1575652, MSSA / VSSA)?
**A.** Its MIC is 0.5 µg/mL (≈ 1.35 µM).

**Q.** What about the MIC ([1]; MSSA, S. aureus IHMA 1575779, MSSA / VSSA) of the same compound?
**A.** The MIC was 1 µg/mL (≈ 2.7 µM).

**Q.** What about the MIC ([1]; MSSA, S. aureus IHMA 1576329, MSSA / VSSA) of the same compound?
**A.** The MIC was 1 µg/mL (≈ 2.7 µM).

**Q.** And the MIC ([1]; MSSA, S. aureus IHMA 1577800, MSSA / VSSA)?
**A.** The MIC was 0.5 µg/mL (≈ 1.35 µM).

**Q.** What about the MIC ([1]; MSSA, S. aureus IHMA 1578560, MSSA / VSSA) of the same compound?
**A.** Its MIC is 1 µg/mL (≈ 2.7 µM).

**Q.** And the MIC ([1]; MSSA, S. aureus IHMA 1580233, MSSA / VSSA)?
**A.** Its MIC is 0.25 µg/mL (≈ 0.675 µM).

**Q.** And the MIC ([1]; MSSA, S. aureus IHMA 1580925, MSSA / VSSA)?
**A.** Its MIC is 0.25 µg/mL (≈ 0.675 µM).

**Q.** What about the MIC ([1]; MSSA, S. aureus IHMA 1580955, MSSA / VSSA) of the same compound?
**A.** The MIC was 1 µg/mL (≈ 2.7 µM).

**Q.** And the MIC ([1]; MSSA, S. aureus IHMA 1582586, MSSA / VSSA)?
**A.** The MIC was 1 µg/mL (≈ 2.7 µM).

**Q.** And the MIC ([1]; MSSA, S. aureus IHMA 1582691, MSSA / VSSA)?
**A.** Its MIC is 0.25 µg/mL (≈ 0.675 µM).

**Q.** What about the MIC ([1]; MSSA, S. aureus IHMA 1584230, MSSA / VSSA) of the same compound?
**A.** Its MIC is 1 µg/mL (≈ 2.7 µM).

**Q.** What about the MIC ([1]; MSSA, S. aureus IHMA 1587279, MSSA / VSSA) of the same compound?
**A.** The MIC was 0.5 µg/mL (≈ 1.35 µM).

**Q.** What about the MIC ([1]; MSSA, S. aureus IHMA 1591459, MSSA / VSSA) of the same compound?
**A.** Its MIC is 0.5 µg/mL (≈ 1.35 µM).

**Q.** What about the MIC ([1]; MSSA, S. aureus IHMA 1592749, MSSA / VSSA) of the same compound?
**A.** Its MIC is 1 µg/mL (≈ 2.7 µM).

**Q.** What about the MIC ([1]; MSSA, S. aureus IHMA 1592751, MSSA / VSSA) of the same compound?
**A.** The MIC was 0.5 µg/mL (≈ 1.35 µM).

**Q.** What about the MIC ([1]; MSSA, S. aureus IHMA 1594297, MSSA / VSSA) of the same compound?
**A.** The MIC was 1 µg/mL (≈ 2.7 µM).

**Q.** What about the MIC ([1]; MSSA, S. aureus IHMA 1597120, MSSA / VSSA) of the same compound?
**A.** Its MIC is 1 µg/mL (≈ 2.7 µM).

**Q.** And the MIC ([1]; MSSA, S. aureus IHMA 1597125, MSSA / VSSA)?
**A.** Its MIC is 1 µg/mL (≈ 2.7 µM).

**Q.** And the MIC ([1]; MSSA, S. aureus IHMA 1599157, MSSA / VSSA)?
**A.** The MIC was 1 µg/mL (≈ 2.7 µM).

**Q.** And the MIC ([1]; MSSA, S. aureus IHMA 1599506, MSSA / VSSA)?
**A.** Its MIC is 0.12 µg/mL (≈ 0.324 µM).

**Q.** What about the MIC ([1]; MSSA, S. aureus IHMA 1602078, MSSA / VSSA) of the same compound?
**A.** The MIC was 0.5 µg/mL (≈ 1.35 µM).

**Q.** And the MIC ([1]; MSSA, S. aureus IHMA 1604586, MSSA / VSSA)?
**A.** The MIC was 0.5 µg/mL (≈ 1.35 µM).

**Q.** What about the MIC ([1]; MSSA, S. aureus IHMA 1604609, MSSA / VSSA) of the same compound?
**A.** The MIC was 0.5 µg/mL (≈ 1.35 µM).

**Q.** What about the MIC ([1]; MSSA, S. aureus IHMA 1609919, MSSA / VSSA) of the same compound?
**A.** The MIC was 0.5 µg/mL (≈ 1.35 µM).

**Q.** And the MIC ([1]; MSSA, S. aureus IHMA 1622864, MSSA / VSSA)?
**A.** The MIC was 0.5 µg/mL (≈ 1.35 µM).

**Q.** What about the MIC ([1]; MSSA, S. aureus IHMA 1626392, MSSA / VSSA) of the same compound?
**A.** The MIC was 1 µg/mL (≈ 2.7 µM).

**Q.** What about the MIC ([1]; MSSA, S. aureus IHMA 1713793, MSSA / VSSA) of the same compound?
**A.** Its MIC is 1 µg/mL (≈ 2.7 µM).

**Q.** And the “Log CFU/Skin” value ([2]; Staphylococcus aureus ECL 2963646 (VRSA))?
**A.** The value was 5.77 Log CFU/Skin and 5.81 Log CFU/Skin and 5.92 Log CFU/Skin and 6.59 Log CFU/Skin and 5.61 Log CFU/Skin.

**Q.** What about the “Log CFU/Skin” value ([2]; Staphylococcus aureus Mu50 ATCC 700699 (VISA)) of the same compound?
**A.** Its value is 5 Log CFU/Skin and 5.57 Log CFU/Skin and 5.65 Log CFU/Skin and 4.91 Log CFU/Skin and 5.98 Log CFU/Skin.

**Q.** What about the “Log CFU/Skin” value ([2]; Staphylococcus aureus USA300 (MRSA)) of the same compound?
**A.** Its value is 4.61 Log CFU/Skin and 3.68 Log CFU/Skin and 4.97 Log CFU/Skin and 3.75 Log CFU/Skin and 4.86 Log CFU/Skin.

**Q.** And the “antibacterial activity after topical application” value ([2]; mouse skin infection, ointment twice daily, MRSA, VISA, VRSA, comparable to mupirocin, in words)?
**A.** The value was “potent antibacterial activity”.
